Test results reported in ChEMBL document CHEMBL1155731, “Montipyridine, a new pyridinium alkaloid from the stony coral montipora species” (2001).

Key:
Assay type in all cases: functional
Details in all cases: read-out: ED50 (the source's name)
SK-OV-3 = assay: Cytotoxicity against human SKOV3 cells
SK-MEL-2 = assay: Cytotoxicity against human SK-MEL-2 cells
XF498 = assay: Cytotoxicity against human XF498 cells
A549 = assay: Cytotoxicity against human A549 cells
HCT-15 = assay: Cytotoxicity against human HCT15 cells

Measured: EC50

C=CCCCCCCCc1cc(OC)cc[n+]1CC(=O)[O-] [MONTIPYRIDINE]
> 30 µg/mL: all assays above
